# Patent US8377894B2, “Drug and food or drink for improving pancreatic functions” (Morinaga Milk Industry Co., Ltd., priority 2005, dated 2013)
# Read-outs that look alike come from different tables or passages of the source.
# What was measured:
# [1] = test system: db/db mice; conditions: for Pancreatic function protecting effect: 0.1 μg/animal; for Pancreatic function protecting effect / Serum insulin level relative to that observed in the negative test: 43rd day of continuous administration; for Serum insulin level relative to that observed in the negative test: 1 μg/animal; for Serum insulin levels on 43rd day of administration: male db/db mice, ELISA
# Method: This test was performed in order to evaluate the pancreatic endocrine gland cell function (insulin production ability) protecting action of a compound having the cyclolanostane skeleton by using db/db mice known as a model animal of pancreatic hypofunction or pancreatic tissue dysfunction.
# In this test, 6-week old male db/db mice (purchased from Clea Japan, Inc.) were used. These mice were divided into groups, each consisting of 7 animals. Each test sample was dissolved in DMSO, and the concentration was adjusted to 0.1 or 1 μg/mL with physiological saline. The final DMSO concentration was adjusted to 0.2%. The pancreatic disorder model mice were orally administered with 1 mL of the test sample once a day everyday for 42 days with a sonde. The serum insulin level was measured on the 43rd day of the continuous administration by using Lbis insulin mouse ELISA kit (Shibayagi Co., Ltd).
# [2] = test system: db/db mice; test: Pancreatic tissue protecting action: number and maximum area of Langerhans islets in pancreatic sections of db/db mice, Test Example 2; type: in vivo; conditions: for Maximum area of Langerhans islets relative to that observed in the negative test / Number of Langerhans islets relative to negative sample-administered mice: 1 μg, 43rd day of continuous administration; for The numbers of Langerhans islets in sections on 43rd day of administration / Maximum area of Langerhans islets on administration: male db/db mice, 1 μg orally once a day for 42 days; for The numbers of Langerhans islets in sections on 43rd day of administration: hematoxylin-eosin stained pancreatic sections; for Maximum area of Langerhans islets on administration: pancreatic sections
# Method: The final DMSO concentration was adjusted to 0.2%. […] On the 43rd day of the continuous administration, the pancreas was extracted, divided into three portions of upstream, midstream and downstream from the duodenum side, and fixed with a formalin solution, and then paraffin blocks were prepared in a conventional manner. Section slides were prepared from the paraffin blocks, and subjected to hematoxylin-eosin staining. The numbers of Langerhans islets existing on the sections of the 3 position of the pancreas, and area of Langerhans islet having the maximum area on each section were measured by using an ocular micrometer on a microscope (“ECLIPSE E600”, NIKON CORP.).
# [3] = 0.1 μg/animal orally once a day for 42 days
# [4] = 1 μg/animal orally once a day for 42 days
SMILES,Pancreatic function protecting effect [1],Serum insulin level relative to that observed in the negative test [1],"Serum insulin levels on 43rd day of administration [1, 3]","Serum insulin levels on 43rd day of administration [1, 4]",Maximum area of Langerhans islets relative to that observed in the negative test [2],Number of Langerhans islets relative to negative sample-administered mice [2],The numbers of Langerhans islets in sections on 43rd day of administration [2],Maximum area of Langerhans islets on administration [2]
"C=C(CCC(C)C1CCC2(C)C3CCC4C(C)(C)C(O)CCC45CC35CCC12C)C(C)C (stereo not shown) [Test sample 2, 24-methylene-9,19-cyclolanostan-3-ol]",any significant pancreatic function protecting effect was not observed,170%,1.94 ± 0.56 ng/mL,3.39 ± 1.35 ng/mL,3.1 times,148%,59.6 ± 11.6 piece,140.0 ± 102.8 × 10^3 μm^2
"CC(C)CCCC(C)C1CCC2(C)C3CCC4C(C)(C)C(O)CCC45CC35CCC12C (stereo not shown) [Test sample 1, 9,19-cyclolanostan-3-ol]",any significant pancreatic function protecting effect was not observed,160%,1.74 ± 0.26 ng/mL,3.19 ± 0.78 ng/mL,1.8 times,149%,60.0 ± 14.8 piece,78.6 ± 3.3 × 10^3 μm^2
